According to publication PMC6835155, “Lessons from LIMK1 enzymology and their impact on inhibitor design” (Biochemical Journal, 2019):
Structures can show the parent of a compound that is named as a salt. Where two headings read alike, the source gives them in different places.

How the values were obtained:
[1] = molecular target: T1, LIMK1KD (Homo sapiens, UniProt P53667); experiment: Differential (dynamic) scanning fluorimetry (DSF) assay, LIMK1KD; assay type: binding; settings: 2 µM LIMK1KD, compound 10 µM, single shot; for ΔTm at 10 µM: read-out: TM Shift LIMK1 (K)
T1 construct: His6 (N, cleaved yes); made in house; host or cells: baculovirus; Sf9 for virus, TriEx insect cells for expression

[2] = molecular target: T2, LIMK2KD (Homo sapiens, UniProt P53671); experiment: Differential (dynamic) scanning fluorimetry (DSF) assay, LIMK2KD; assay type: binding; settings: for ΔTm at 10 µM: read-out: TM Shift LIMK2 (K)
T2 construct: The cDNA coding for LIMK2 residues 330 to 632 was PCR amplified; His6 (N, cleaved yes); made in house; host or cells: baculovirus; Sf9 for virus, TriEx insect cells for expression

[3] = LIMK2KD, compound 10 µM, single shot, 10 µM
[4] = LIMK2KD, compound 10 µM, single shot

T2 sequence (P53671 330-632): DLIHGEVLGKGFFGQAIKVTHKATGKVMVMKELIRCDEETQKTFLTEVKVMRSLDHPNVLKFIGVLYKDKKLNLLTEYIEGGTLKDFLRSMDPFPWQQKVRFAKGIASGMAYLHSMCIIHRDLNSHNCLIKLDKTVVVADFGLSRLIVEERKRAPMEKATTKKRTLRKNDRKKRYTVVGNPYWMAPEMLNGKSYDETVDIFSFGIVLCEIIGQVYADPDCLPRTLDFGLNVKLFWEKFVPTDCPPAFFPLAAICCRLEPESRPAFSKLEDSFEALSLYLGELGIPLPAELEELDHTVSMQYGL
T1 sequence (P53667 330-637): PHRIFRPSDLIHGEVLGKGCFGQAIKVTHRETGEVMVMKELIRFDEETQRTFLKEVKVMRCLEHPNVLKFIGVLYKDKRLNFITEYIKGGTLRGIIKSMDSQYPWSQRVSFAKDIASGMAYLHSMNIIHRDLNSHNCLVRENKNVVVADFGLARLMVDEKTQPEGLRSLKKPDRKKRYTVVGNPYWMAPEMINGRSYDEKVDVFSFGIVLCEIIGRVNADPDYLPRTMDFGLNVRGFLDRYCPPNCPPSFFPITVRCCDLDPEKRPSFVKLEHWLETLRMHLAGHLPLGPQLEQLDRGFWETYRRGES

Row | ΔTm at 10 µM [1] [°C] | TM Shift LIMK1 (K) [1] [K] | TM Shift LIMK2 (K) [2, 4] [K] | ΔTm at 10 µM [2, 4] [°C] | Compound | also measured
1 |  | 1.6 |  |  | CCN(CC)CCNC(=O)c1c(C)[nH]c(/C=C2\C(=O)Nc3ccc(F)cc32)c1C [Sunitinib Malate] | TM Shift LIMK2 (K) [2, 3]: 0.5 K
2 | 1.8 |  |  |  | CCN(CC)CCNC(=O)c1c(C)[nH]c(/C=C2\C(=O)Nc3ccc(F)cc32)c1C [Sunitinib] | TM Shift LIMK2 (K) [2, 3]: -0.1 K
3 |  | 1.1 | 3.3 |  | CNC(=O)c1ccccc1Nc1nc(Nc2ccc(N3CCOCC3)cc2OC)ncc1Cl [TAE226 (NVP-TAE226)] | 
4 | -1.1 |  |  | 0 | CC(C)(O)CC(=O)NCCn1ccc2ncnc(Nc3ccc(Oc4cccc(C(F)(F)F)c4)c(Cl)c3)c21 [TAK-285] | 
5 |  | 1.3 | 3.2 |  | N#Cc1c(Oc2ccc(F)c(NC(=O)Cc3cccc(C(F)(F)F)c3)c2)ccc2nc(NC(=O)C3CC3)sc12 [TAK-632] | 
6 | 0.4 |  |  | 2.6 | CCc1nc(-c2cccc(C)c2)c(-c2ccnc(NC(=O)c3ccccc3)c2)s1 [TAK-715] | 
7 | -0.5 |  |  | 0.3 | Cn1c(=O)c(F)c(Nc2ccc(I)cc2F)c2c(=O)n(C[C@@H](O)CO)cnc21 [TAK-733] | 
8 | 3.7 |  |  | 0.3 | CCS(=O)(=O)c1cccc(-c2cc(C(=O)NC3CCN(C)CC3)c(C)c3[nH]c4ncc(C)cc4c23)c1 [TAK-901] | 
9 |  | 1.3 | 1.1 |  | COc1ccc(C(=O)Nc2sc3c(c2C(N)=O)CCCC3)cc1OC [TCS 359] | 
10 |  | -1.0 | -1.2 |  | CCN1/C(=C/C(C)=O)Sc2ccc(OC)cc21 [TG003] | 
11 |  | 1.3 | 2.4 |  | Nc1nc(N)c2nc(-c3cccc(O)c3)c(-c3cccc(O)c3)nc2n1 [TG100-115] | 
12 |  | 1.4 | 0.7 |  | Nc1nc(N)c2nc(-c3cccc(O)c3)cnc2n1 [TG100713] | 
13 |  | 2.4 | 3.1 |  | Cc1cnc(Nc2ccc(N3CCN(C)CC3)cc2)nc1Nc1cccc(S(=O)(=O)NC(C)(C)C)c1 [TG101209] | 
14 |  | 2.0 |  |  | Cc1cnc(Nc2ccc(OCCN3CCCC3)cc2)nc1Nc1cccc(S(=O)(=O)NC(C)(C)C)c1 [TG101348 (SAR302503)] | TM Shift LIMK2 (K) [2, 3]: 0.7 K
15 |  | 0.1 | 0.0 |  | Cc1cc(C(C)Nc2ccccc2)c2nc(N3CCOCC3)cc(=O)n2c1 (stereo not shown) [TGX-221] | 
16 |  | 0.5 | -1.2 |  | Cc1ccccc1CN1C(=O)C2=C(CCN(Cc3ccccc3)C2)N2CCN=C12 [TIC10] | 
17 |  | 5.2 | 4.1 |  | Nc1cccc(-c2cc3c(Oc4cccc(O)c4)ncnc3[nH]2)c1 [TWS119] | 
18 | 5.5 |  |  | 3 | COc1cc(Nc2ncc(F)c(Nc3ccc4c(n3)NC(=O)C(C)(C)O4)n2)cc(OC)c1OC [Tamatinib] | 
19 | 0.8 |  |  | 0 | COc1cc2c(N3CCN(C(=O)Nc4ccc(OC(C)C)cc4)CC3)ncnc2cc1OCCCN1CCCCC1 [Tandutinib (MLN518), Tandutinib] | 
20 | -1.4 |  |  | 3.3 | CNC(=O)c1cc(COc2nnc(Nc3ccc(Cl)cc3)c3ccoc23)ccn1 [Telatinib] | 
21 | -0.7 |  |  | 0 | CO[C@H]1C[C@@H]2CC[C@@H](C)[C@@](O)(O2)C(=O)C(=O)N2CCCC[C@H]2C(=O)O[C@H]([C@H](C)C[C@@H]2CC[C@@H](OC(=O)C(C)(CO)CO)[C@H](OC)C2)CC(=O)[C@H](C)/C=C(\C)[C@@H](O)[C@@H](OC)C(=O)[C@H](C)C[C@H](C)/C=C/C=C/C=C/1C [Temsirolimus (CCI-779, NSC 683864), Temsirolimus] | 
22 |  | 1.1 | 1.0 |  | O=C(NCc1ccccc1)c1csc(Nc2ccncn2)n1 [Thiazovivin] | 
23 | -0.5 |  |  | 3.9 | O=c1sn(-c2cccc3ccccc23)c(=O)n1Cc1ccccc1 [Tideglusib] | 
24 | 0 |  |  | 0.6 | O=C1NC(=O)[C@@H](c2cn3c4c(cccc24)CCC3)[C@@H]1c1c[nH]c2ccccc12 [Tivantinib] | 
25 | 1.1 |  |  | 1.5 | COc1cc2nccc(Oc3ccc(NC(=O)Nc4cc(C)on4)c(Cl)c3)c2cc1OC [Tivozanib (AV-951), Tivozanib] | 

Row | ΔTm at 10 µM [1] [°C] | TM Shift LIMK1 (K) [1] [K] | TM Shift LIMK2 (K) [2, 4] [K] | ΔTm at 10 µM [2, 4] [°C] | Compound | also measured
26 | -0.4 |  |  | 3.1 | C[C@@H]1CCN(C(=O)CC#N)C[C@@H]1N(C)c1ncnc2[nH]ccc12 [Tofacitinib (CP-690550) Citrate, Tofacitinib] | 
27 | -0.2 |  |  | 3.1 | CCC(=O)N1CCN(c2ccc(-n3c(=O)ccc4cnc5ccc(-c6cnc7ccccc7c6)cc5c43)cc2C(F)(F)F)CC1 [Torin 1] | 
28 |  | -1.1 | -0.7 |  | Nc1ccc(-c2ccc3ncc4ccc(=O)n(-c5cccc(C(F)(F)F)c5)c4c3c2)cn1 [Torin 2] | 
29 | -0.2 |  |  | 0 | CC(=O)Nc1cccc(-n2c(=O)n(C3CC3)c(=O)c3c(Nc4ccc(I)cc4F)n(C)c(=O)c(C)c32)c1 [Trametinib (GSK1120212), Trametinib] | 
30 | 0.1 |  |  | 1.2 | CC(C)(C)c1cc(/C=C(\C#N)C(N)=S)cc(C(C)(C)C)c1O [Tyrphostin AG 879] | 
31 |  | 0.0 | -1.3 |  | COc1cc2ncc(-c3ccccc3)nc2cc1OC [Tyrphostin AG 1296] | 
32 |  | -1.1 | 2.4 |  | CCO.N#CC(=C(/N)Sc1ccccc1N)/C(C#N)=C(\N)Sc1ccccc1N [U0126-EtOH] | 
33 | -0.5 |  |  | 0.5 | CNCc1ccc(-c2cc(-c3nc(-c4ccc(S(=O)(=O)C(C)C)cc4)cnc3N)on2)cc1 [VE-822] | 
34 | 3.4 |  |  | 0 | Cc1cc(Nc2cc(N3CCN(C)CC3)nc(Sc3ccc(NC(=O)C4CC4)cc3)n2)[nH]n1 [VX-680 (Tozasertib, MK-0457), Tozasertib] | 
35 | 0.6 |  |  | -0.6 | NC(=O)c1ccc(N(C(N)=O)c2c(F)cccc2F)nc1-c1ccc(F)cc1F [VX-702] | 
36 | 0.6 |  |  | 1.3 | O=c1ncn2nc(Sc3ccc(F)cc3F)ccc2c1-c1c(Cl)cccc1Cl [VX-745] | 
37 | 0.1 |  |  | 0.1 | COc1cc2c(Nc3ccc(Br)cc3F)ncnc2cc1OCC1CCN(C)CC1 [Vandetanib (ZD6474), Vandetanib] | 
38 | 0.9 |  |  | 0.8 | C[C@@H]1COC(Nc2ccc3ncnc(Nc4ccc(OCc5nccs5)c(Cl)c4)c3c2)=N1 [Varlitinib] | 
39 | -0.5 |  |  | -0.3 | Clc1ccc(Nc2nnc(Cc3ccncc3)c3ccccc23)cc1 [Vatalanib (PTK787) 2HCl, Vatalanib] | 
40 | 1.5 |  |  | 6 | CCCS(=O)(=O)Nc1ccc(F)c(C(=O)c2c[nH]c3ncc(-c4ccc(Cl)cc4)cc23)c1F [Vemurafenib (PLX4032, RG7204), Vemurafenib] | 
41 | 0.5 |  |  | 0.3 | CC[C@@H]1C(=O)N(C)c2cnc(Nc3ccc(C(=O)N[C@H]4CC[C@H](N5CCN(CC6CC6)CC5)CC4)cc3OC)nc2N1C(C)C [Volasertib (BI 6727), Volasertib] | 
42 |  | 0.2 |  |  | CCn1c(=O)c(-c2cc[nH]n2)cc2c(C)nc(N)nc21 [Voxtalisib] | TM Shift LIMK2 (K) [2, 3]: 0.4 K
43 |  | -0.1 | -0.2 |  | c1cncc(CN2CCC(n3ncc4c(N5CCOCC5)nc(-c5ccc6[nH]ccc6c5)nc43)CC2)c1 [WAY-600] | 
44 |  | 1.5 | -0.2 |  | COc1cc2ncnc(Nc3ccc(O)c(Br)c3)c2cc1OC [WHI-P154] | 
45 | -0.3 |  |  | 0.4 | C[C@H](NC(=O)/C(C#N)=C/c1cccc(Br)n1)c1ccccc1 [WP1066] | 
46 |  | 0.5 | 0.9 |  | CNC(=O)Nc1ccc(-c2nc(N3CC4CCC(C3)O4)c3cnn(C4CCC5(CC4)OCCO5)c3n2)cc1 [WYE-125132 (WYE-132)] | 
47 |  | 1.9 | 1.5 |  | C=CC(=O)Nc1cccc(Oc2nc(Nc3ccc(N4CCN(C)CC4)cc3)ncc2Cl)c1 [WZ3146] | 
48 | 1 |  |  | 1.8 | C=CC(=O)Nc1cccc(Oc2nc(Nc3ccc(N4CCN(C)CC4)cc3OC)ncc2Cl)c1 [WZ4002] | 
49 | 0.4 |  |  | -0.8 | CCC(=O)Nc1cccc(Oc2nc(Nc3ccc(N4CCN(C)CC4)cc3OC)ncc2Cl)c1 [WZ4003] | 

Row | Compound | ΔTm at 10 µM [1] [°C] | TM Shift LIMK1 (K) [1] [K] | TM Shift LIMK2 (K) [2, 4] [K] | ΔTm at 10 µM [2, 4] [°C] | also measured
50 | CN[C@@H]1C[C@H]2O[C@@](C)([C@@H]1OC)n1c3ccccc3c3c4c(c5c6ccccc6n2c5c31)C(=O)NC4 [Staurosporine] | 5.1 |  |  |  | ΔTm at 10 µM [2]: 3.3 °C
51 | NC(=O)Nc1sc(-c2ccc(F)cc2)cc1C(N)=O [TPCA-1] |  | 2.8 | 3.6 |  | 
52 | COc1ccc2cc(-c3nc(-c4ccc([S+](C)[O-])cc4)[nH]c3-c3ccncc3)ccc2c1 (stereo not shown) [Tie2 kinase inhibitor] |  | 1.3 | 1.4 |  | 
53 | CC(C)(C)c1cc(C=C(C#N)C#N)cc(C(C)(C)C)c1O [Tyrphostin 9] |  | 3.5 | 6.3 |  | 
54 | CN[C@@H]1C[C@H]2O[C@@](C)([C@@H]1OC)n1c3ccccc3c3c4c(c5c6ccccc6n2c5c31)C(=O)N[C@H]4O [UCN-01] |  | 1.2 | 0.7 |  | 
55 | CS(=O)(=O)c1ccc(-c2cnc(N)c(C(=O)Nc3ccccc3)n2)cc1 [VE-821] | 0.8 |  |  | 1.5 | 
56 | Cc1cnc(Nc2ccc(F)cc2Cl)nc1-c1c[nH]c(C(=O)N[C@H](CO)c2cccc(Cl)c2)c1 [VX-11E] |  | 0.0 | -1.6 |  | 
